In US8247211B2, “Glycopeptide antibiotics” (American Cyanamid Company, priority 2001, dated 2012):
≈ marks a conversion by molar mass, not a printed value.

Experiments:
Test in all cases: In vitro antibacterial evaluation: minimum inhibitory concentration (MIC), broth dilution method
Format in all cases: cell-based
[1] = test system: Enterococcus sp.
Protocol: (§1) The minimum inhibitory concentration (MIC), the lowest concentration of the antibiotic which inhibits growth of the test organism, is determined by the broth dilution method using Muller-Hinton II […] (Baltimore Biological Laboratories) following the recommendations of the National Committee for Clinical Laboratory Standards [Methods for dilution antimicrobial susceptibility tests for bacteria that grow aerobically, approved standard M7-A2, National Committee for Clinical Laboratory Standards, Villanova, Pa].
(§2) An inoculum level of 5×10^5 CFU/mL, and a range of antibiotic concentrations (64-0.06 μg/mL) is used. […] The test organisms include a spectrum of Gram-positive bacteria comprised of Staphylococcus sp., Streptococcus sp. and Enterococcus sp. These organisms include recent clinical isolates that are resistant to methicillin, penicillin and/or vancomycin.

[2] = test system: Staphylococcus sp.; conditions: broth dilution, 18 hours at 35° C.
Protocol: as §1, §2

[3] = test system: Escherichia coli
Protocol: as §1, §2

[4] = test system: Streptococcus sp.
Protocol: as §1, §2

- MIC Enterococcus faecalis (ATCC 29212) ([1]; strain ATCC 29212): 8 µg/mL (≈ 5.54 µM)
- MIC Enterococcus faecalis (GC 2242) ([1]; strain GC 2242): 4 µg/mL (≈ 2.77 µM)
- MIC Enterococcus faecium (GC 2243) ([1]; strain GC 2243): 8 µg/mL (≈ 5.54 µM)
- MIC Enterococcus faecalis (GC 2691) ([1]; strain GC 2691): 4 µg/mL (≈ 2.77 µM)
- MIC Enterococcus faecalis (GC 3059) ([1]; strain GC 3059): 8 µg/mL (≈ 5.54 µM)
- MIC Enterococcus faecalis (GC 4552) ([1]; strain GC 4552): 8 µg/mL (≈ 5.54 µM)
- MIC Enterococcus faecalis (GC 4553) ([1]; strain GC 4553): 8 µg/mL (≈ 5.54 µM)
- MIC Enterococcus faecalis (GC 4554) ([1]; strain GC 4554): 8 µg/mL (≈ 5.54 µM)
- MIC Enterococcus faecium (GC 4556) ([1]; strain GC 4556): 8 µg/mL (≈ 5.54 µM)
- MIC Enterococcus faecium (GC 4557) ([1]; strain GC 4557): 4 µg/mL (≈ 2.77 µM)
- MIC Enterococcus avium (GC 4558) ([1]; strain GC 4558): 8 µg/mL (≈ 5.54 µM)
- MIC Enterococcus faecalis (GC 6189) ([1]; strain GC 6189): 8 µg/mL (≈ 5.54 µM)
- MIC Coagulase Negative Staphylococcus (GC 4547) ([2]; 5×10^5 CFU/mL): 2 µg/mL (≈ 1.39 µM)
- MIC Coagulase Negative Staphylococcus (GC 4548) ([2]; 5×10^5 CFU/mL): 1 µg/mL (≈ 0.693 µM)
- MIC Coagulase Negative Staphylococcus (GC 4549) ([2]; 5×10^5 CFU/mL): 1 µg/mL (≈ 0.693 µM)
- MIC Coagulase Negative Staphylococcus (GC 4551) ([2]; 5×10^5 CFU/mL): 2 µg/mL (≈ 1.39 µM)
- MIC Coagulase Negative Staphylococcus (GC 6257) ([2]; 5×10^5 CFU/mL): 1 µg/mL (≈ 0.693 µM)
- MIC Staphylococcus aureus (ATCC 29213) ([2]; 5×10^5 CFU/mL): 2 µg/mL (≈ 1.39 µM)
- MIC Staphylococcus aureus (GC 1131) ([2]; 5×10^5 CFU/mL): 4 µg/mL (≈ 2.77 µM)
- MIC Staphylococcus aureus (GC 3051) ([2]; 5×10^5 CFU/mL): 2 µg/mL (≈ 1.39 µM)
- MIC Staphylococcus aureus (GC 3053) ([2]; 5×10^5 CFU/mL): 8 µg/mL (≈ 5.54 µM)
- MIC Staphylococcus aureus (GC 4541) ([2]; 5×10^5 CFU/mL): 2 µg/mL (≈ 1.39 µM)
- MIC Staphylococcus aureus (GC 4542) ([2]; 5×10^5 CFU/mL): 2 µg/mL (≈ 1.39 µM)
- MIC Staphylococcus aureus (GC 4544) ([2]; 5×10^5 CFU/mL): 2 µg/mL (≈ 1.39 µM)
- MIC Staphylococcus aureus (GC 4545) ([2]; 5×10^5 CFU/mL): 2 µg/mL (≈ 1.39 µM)
- MIC Staphylococcus aureus-SMITH (GC 4543) ([2]; 5×10^5 CFU/mL): 2 µg/mL (≈ 1.39 µM)
- MIC Staphylococcus aureus (ATCC 29213) ([2]; strain ATCC 29213): 2 µg/mL (≈ 1.39 µM)
- MIC Staphylococcus aureus (GC 1131) ([2]; strain GC 1131): 4 µg/mL (≈ 2.77 µM)
- MIC Staphylococcus aureus (GC 3051) ([2]; strain GC 3051): 2 µg/mL (≈ 1.39 µM)
- MIC Staphylococcus aureus (GC 3053) ([2]; strain GC 3053): 8 µg/mL (≈ 5.54 µM)
- MIC Staphylococcus aureus (GC 4541) ([2]; strain GC 4541): 2 µg/mL (≈ 1.39 µM)
- MIC Staphylococcus aureus (GC 4542) ([2]; strain GC 4542): 2 µg/mL (≈ 1.39 µM)
- MIC Staphylococcus aureus-SMITH (GC 4543) ([2]; strain GC 4543): 2 µg/mL (≈ 1.39 µM)
- MIC Staphylococcus aureus (GC 4544) ([2]; strain GC 4544): 2 µg/mL (≈ 1.39 µM)
- MIC Staphylococcus aureus (GC 4545) ([2]; strain GC 4545): 2 µg/mL (≈ 1.39 µM)
- MIC Coagulase Negative Staphylococcus (GC 4547) ([2]; strain GC 4547): 2 µg/mL (≈ 1.39 µM)
- MIC Coagulase Negative Staphylococcus (GC 4548) ([2]; strain GC 4548): 1 µg/mL (≈ 0.693 µM)
- MIC Coagulase Negative Staphylococcus (GC 4549) ([2]; strain GC 4549): 1 µg/mL (≈ 0.693 µM)
- MIC Coagulase Negative Staphylococcus (GC 4551) ([2]; strain GC 4551): 2 µg/mL (≈ 1.39 µM)
- MIC Coagulase Negative Staphylococcus (GC 6257) ([2]; strain GC 6257): 1 µg/mL (≈ 0.693 µM)
- MIC Escherichia coli (ATCC 25922) ([3]; strain ATCC 25922): >64 µg/mL
- MIC Escherichia coli (GC 4559) ([3]; strain GC 4559): 32 µg/mL (≈ 22.2 µM)
- MIC Escherichi coli (GC 4560) ([3]; strain GC 4560): 1 µg/mL (≈ 0.693 µM)
- MIC Streptococcus pneumoniae (ATCC 6301) ([4]; strain ATCC 6301): 0.25 µg/mL (≈ 0.173 µM)
- MIC Streptococcus pneumoniae (GC 1894) ([4]; strain GC 1894): 0.12 µg/mL (≈ 0.0831 µM)
- MIC Streptococcus pyogenes (GC 4563) ([4]; strain GC 4563): 0.5 µg/mL (≈ 0.346 µM)
- MIC Streptococcus agalactiae (GC 4564) ([4]; strain GC 4564): 1 µg/mL (≈ 0.693 µM)
- MIC Streptococcus pneumoniae (GC 4565) ([4]; strain GC 4565): 0.25 µg/mL (≈ 0.173 µM)
SMILES: COc1cc(OC)cc(C2OCC3OC(OC4C(CO)OC(Oc5ccc(CC6NC(=O)C(C(C)c7ccccc7)NC(=O)CNC(=O)C(CO)NC(=O)C(C(O)C7CNC(=N)N7C7OC(CO)C(O)C(O)C7O)NC(=O)C(C(O)C7CNC(=N)N7)NC6=O)cc5)C(O)C4O)C(O)C(O)C3O2)c1 (stereo not drawn) [Example 150, Cyclo[glycyl-β-methylphenylalanyl-O-[4-O-[4,6-O-(3,5-dimethoxybenzylidene)hexopyranosyl]-hexopyranosyl]tyrosyl-3-(2-iminoimidazolidin-4-yl)seryl-3-(3-hexopyranosyl-2-iminoimidazolidin-4-yl)serylseryl]]
- MIC Staphylococcus haemolyticus (GC 4546) ([2]; 5×10^5 CFU/mL): 1 µg/mL (≈ 0.693 µM)
- MIC Staphylococcus haemolyticus (GC 4546) ([2]; strain GC 4546): 1 µg/mL (≈ 0.693 µM)
